Data: patent US20260007613A1, “LONG-ACTING LOW-TOXICITY NOVEL CATIONIC LIPID COMPOUNDS AND COMPOSITION THEREOF” (BEIJING YOUCAREKECHUANG PHARMACEUTICAL TECHNOLOGY CO., LTD., priority 2023, published 2026)
Where “and” joins values, the source holds several entries; their conditions need not be identical. Identical values can stand only once.

Key:
[1] = system: 293T cells; assay: Fluorescent detection of Fluc-mRNA (cell transfection efficiency of LNP formulations); assay type: cell-based
Protocol: (§1) Cell recovery and passage: 293T cells were recovered, cultured in a culture dish, and passaged to the required number of cells.
(§2) Seeding plate: The cells in the culture dish were digested and counted. Cells were spread in a 96-well plate at 10,000 cells per well and in a 12-well plate at 150,000 cells per well. Cells were cultured overnight until the cells adhered to the wall.
(§3) Cell recovery and passage: the method was the same as in Example 3.
(§4) Seeding plate: the method was the same as in Example 3.
An LNP formulation containing […] of Fluc-mRNA (the carrier components of the LNP formulation were cationic lipid, neutral lipid, structured lipid and polymer-conjugated lipid with a molar ratio of 49:10:39.5:1.5, wherein the cationic lipid was listed in Table 1) was added to the cell culture medium of a 96-well plate, and further incubated for 24 hours. The corresponding reagent was added according to the instructions of the […] Luciferase Assay Kit, and the fluorescence expression intensity of each well was detected by an IVIS fluorescence detection system. This test verified the transfection efficiencies of LNP formulations in cells, see Tables 4-7 for specific test results.

[2] = system: female BALB/C mice; assay: Live imaging in mice: protein expression of Fluc-mRNA delivered by LNP formulations; assay type: in vivo; settings: for average radiation intensity, times that of ALC-0315: comparator ALC-0315; for average radiation intensity, times that of HHMA: comparator HHMA; for average radiation intensity, times that of SM-102: comparator SM-102; for expression of mRNA in mice, times that of YK-302: comparator YK-302; for expression amount, times that of YK-321: comparator YK-321; for average radiation intensity, times that of compound 21: comparator compound 21; for average radiation intensity, times that of compound 23: comparator compound 23
Protocol: In addition, the protein expression and duration of mRNA in mice delivered by the cationic lipid delivery carriers designed were also verified.
The LNP formulation containing […] Fluc-mRNA was injected intramuscularly into female BALB/C mice aged 4 to 6 weeks old and weighed 17 to 19 g, and the mice were intraperitoneally injected with fluorescent imaging substrate at specific time points after administration (6 h, 24 h, 48 h and 7 d), where the mice were free to move for 5 minutes, and then the average radiation intensity (corresponding to fluorescence expression intensity) of the protein expression of the mRNA carried by the LNP in the mice was detected by the IVIS Spectrum small animal live imaging device.

[3] = system: 293T cells; assay: Cell survival rate determination (CCK-8); assay type: cell-based
Protocol: as §1, §2, §3, §4
An LNP formulation containing […] of Fluc-mRNA (the carrier components of the LNP formulation were cationic lipid, neutral lipid, structured lipid and polymer-conjugated lipid with a molar ratio of 49:10:39.5:1.5, wherein the cationic lipid was listed in Table 1) and the formulation of Lipofectamine 3000 were added to the cell culture medium of a 96-well plate, and further cultivated for 24 hours. 10 μL of CCK-8 solution was then added to each well, and the culture plate was incubated in an incubator for 1 hour. The absorbance at 450 nm was measured by a microplate reader.
Cell survival rate can represent the toxicity of cationic lipids to cells. The higher the cell survival rate, the lower the toxicity to cells.

[4] = Particle size and polydispersity index (PDI) of lipid nanoparticles by dynamic light scattering; assay type: physicochemical; settings: LNP formulation prepared from the cationic lipid, 25° C.
Protocol: The particle size and polydispersity index (PDI) were determined by dynamic light scattering using Malvern laser particle size analyzer.
10 μL of the liposome solution was weighed, diluted to 1 mL with RNase-free deionized water, and added to the sample pool. Each sample was measured in triplicate. The measurement conditions were: […] scattering angle, and 25° C.

SMILES: CCCCCCCCC(CCCCCCCC)OC(=O)CCCCCN(CCCCCC(=O)OC(CCCCCCCC)CCCCCCCC)C[C@H](O)CN(CCO)CCO [YK-318, (S)-bis(heptadecan-9-yl)-6,6′-((3-(bis(2-hydroxyethyl)amino)-2-hydroxypropyl)azanediyl)dihexanoate]
- Relative light unit (RLU) ([1]; LNP formulation of Fluc-mRNA, 96-well plate, 24 hours): 11190068 RLU
- Multiples (YK-305) ([1]; RLU of YK-305 / RLU of the lipid of the line): 2.45
- Multiples (YK-310) ([1]; RLU of YK-310 / RLU of the lipid of the line): 2.31
- Multiples (YK-312) ([1]; RLU of YK-312 / RLU of the lipid of the line): 1.80
- Multiples (YK-318) ([1]; RLU of YK-318 / RLU of the lipid of the line, Tables 5, 7, 11): 1.00
- Multiples (YK-319) ([1]; RLU of YK-319 / RLU of the lipid of the line, Tables 5, 7, 11): 2.19
- Ratio relative to SM-102 ([1]; RLU of the lipid / RLU of SM-102, times that of SM-102): 6.98
- cell transfection efficiency, times that of ALC-0315 ([1]; comparator ALC-0315): 5.50 times
- cell transfection efficiency, times that of HHMA ([1]; comparator HHMA): 5.58 times
- cell transfection efficiency, times that of Lipofectamine 3000 ([1]; comparator Lipofectamine 3000): 9.44 times
- cell transfection efficiency, times that of YK-009 ([1]; comparator YK-009): 2.19 times
- cell transfection efficiency, times that of YK-301 ([1]; comparator YK-301): 13.28 times
- cell transfection efficiency, times that of YK-302 ([1]; comparator YK-302): 402.84 times
- cell transfection efficiency, times that of YK-303 ([1]; comparator YK-303): 17.87 times
- cell transfection efficiency, times that of YK-304 ([1]; comparator YK-304): ~400 times and 540.95 times
- cell transfection efficiency, times that of YK-306 ([1]; comparator YK-306): 5.09 times
- cell transfection efficiency, times that of YK-307 ([1]; comparator YK-307): 2.46 times
- cell transfection efficiency, times that of YK-308 ([1]; comparator YK-308): 4.86 times
- cell transfection efficiency, times that of YK-309 ([1]; comparator YK-309): ~90 times and 89.26 times
- cell transfection efficiency, times that of YK-311 ([1]; comparator YK-311): 5.70 times
- cell transfection efficiency, times that of YK-313 ([1]; comparator YK-313): 12.91 times
- cell transfection efficiency, times that of YK-314 ([1]; comparator YK-314): 20.44 times
- cell transfection efficiency, times that of YK-315 ([1]; comparator YK-315): 7.05 times
- cell transfection efficiency, times that of YK-316 ([1]; comparator YK-316): 2.33 times
- cell transfection efficiency, times that of YK-317 ([1]; comparator YK-317): 3.10 times
- cell transfection efficiency, times that of YK-320 ([1]; comparator YK-320): 4.14 times
- cell transfection efficiency, times that of YK-321 ([1]; comparator YK-321): 7.97 times
- cell transfection efficiency, times that of compound 21 ([1]; comparator compound 21): 7.81 times
- cell transfection efficiency, times that of compound 23 ([1]; comparator compound 23): 8.25 times
- average radiation intensity, times that of ALC-0315 ([2]; 6 h): 3.85 times
- average radiation intensity, times that of HHMA ([2]; 6 h): 5.11 times
- average radiation intensity, times that of SM-102 ([2]; 6 h): 4.74 times
- expression of mRNA in mice, times that of YK-302 ([2]; 6 h): 228.10 times
- expression amount, times that of YK-321 ([2]; 6 h): 6.45 times
- average radiation intensity, times that of compound 21 ([2]; 6 h): 5.45 times
- average radiation intensity, times that of compound 23 ([2]; 6 h): 5.64 times
- average radiation intensity ([2]; 6 h after intramuscular injection): 3325680
- average radiation intensity, times that of ALC-0315 ([2]; 24 h): 5.08 times
- average radiation intensity, times that of HHMA ([2]; 24 h): 8.08 times
- average radiation intensity, times that of SM-102 ([2]; 24 h): 8.04 times
- expression of mRNA in mice, times that of YK-302 ([2]; 24 h): 244.83 times
- expression amount, times that of YK-321 ([2]; 24 h): 9.57 times
- average radiation intensity, times that of compound 21 ([2]; 24 h): 8.82 times
- average radiation intensity, times that of compound 23 ([2]; 24 h): 9.27 times
- average radiation intensity ([2]; 24 h after intramuscular injection): 968540
- average radiation intensity, times that of ALC-0315 ([2]; 48 h): 8.96 times
- average radiation intensity, times that of HHMA ([2]; 48 h): 10.96 times
- average radiation intensity, times that of SM-102 ([2]; 48 h): 10.96 times
- expression of mRNA in mice, times that of YK-302 ([2]; 48 h): 348.11 times
- expression amount, times that of YK-321 ([2]; 48 h): 9.76 times
- average radiation intensity, times that of compound 21 ([2]; 48 h): 11.52 times
- average radiation intensity, times that of compound 23 ([2]; 48 h): 10.77 times
- average radiation intensity ([2]; 48 h after intramuscular injection): 356810
- average radiation intensity, times that of ALC-0315 ([2]; 7 d): 7.19 times
- average radiation intensity, times that of HHMA ([2]; 7 d): 8.63 times
- average radiation intensity, times that of SM-102 ([2]; 7 d): 7.65 times
- expression of mRNA in mice, times that of YK-302 ([2]; 7 d): 131.92 times
- expression amount, times that of YK-321 ([2]; 7 d): 7.69 times
- average radiation intensity, times that of compound 21 ([2]; 7 d): 7.86 times
- average radiation intensity, times that of compound 23 ([2]; 7 d): 8.12 times
- average radiation intensity ([2]; 7 d after intramuscular injection): 50659
- Cell survival rate (%) ([3]; LNP formulation of Fluc-mRNA, 24 hours, CCK-8): 75.56%
- cell survival rate higher than ALC-0315 ([3]; difference of survival rates, comparator ALC-0315): 24.53%
- cell survival rate higher than HHMA ([3]; difference of survival rates, comparator HHMA): 9.09%
- cell survival rate higher than Lipofectamine 3000 ([3]; difference of survival rates, comparator Lipofectamine 3000): 50.55%
- cell survival rate higher than SM-102 ([3]; difference of survival rates, comparator SM-102): 6.11%
- cell survival rate higher than YK-301 ([3]; difference of survival rates, comparator YK-301): 22.60%
- cell survival rate higher than YK-302 ([3]; difference of survival rates, comparator YK-302): 59.13%
- cell survival rate higher than YK-303 ([3]; difference of survival rates, comparator YK-303): 12.24%
- cell survival rate higher than YK-304 ([3]; difference of survival rates, comparator YK-304): 41.40%
- cell survival rate higher than YK-306 ([3]; difference of survival rates, comparator YK-306): 33.37%
- cell survival rate higher than YK-307 ([3]; difference of survival rates, comparator YK-307): 14.42%
- cell survival rate higher than YK-308 ([3]; difference of survival rates, comparator YK-308): 4.57%
- cell survival rate higher than YK-309 ([3]; difference of survival rates, comparator YK-309): 43.95%
- cell survival rate higher than YK-311 ([3]; difference of survival rates, comparator YK-311): 5.50%
- cell survival rate higher than YK-313 ([3]; difference of survival rates, comparator YK-313): 6.63%
- cell survival rate higher than YK-314 ([3]; difference of survival rates, comparator YK-314): 7.68%
- cell survival rate higher than YK-315 ([3]; difference of survival rates, comparator YK-315): 4.28%
- cell survival rate higher than YK-316 ([3]; difference of survival rates, comparator YK-316): 5.03%
- cell survival rate higher than YK-317 ([3]; difference of survival rates, comparator YK-317): 16.38%
- cell survival rate higher than YK-320 ([3]; difference of survival rates, comparator YK-320): 4.49%
- cell survival rate higher than YK-321 ([3]; difference of survival rates, comparator YK-321): 3.22%
- cell survival rate higher than compound 21 ([3]; difference of survival rates, comparator compound 21): 5.35%
- cell survival rate higher than compound 23 ([3]; difference of survival rates, comparator compound 23): 4.06%
- PDI (%) [4]: 14.8%
- Particle size (nm) [4]: 173 nm
